According to ChEMBL document CHEMBL5325504, “Bioactive Indole Alkaloid from Aspergillus amoenus TJ507 That Ameliorates Hepatic Ischemia/Reperfusion Injury” (J Nat Prod, 2023):
Calls of active or inactive are those of the source. The calls are words filed in the database; no cut-off is given here.

Legend:
AML12 [1] = assay: Cytoprotective activity against CoCl2-induced mouse AML12 cells assessed as increase in cell survival rate by CCK8 method; format: functional, cell-based
Mus musculus [2] = species on record: Mus musculus; assay: Hepatoprotective activity against ischemia-reperfusion injury mouse model assessed as reduction in TUNEL positive cells by TUNEL staining based analysis; format: functional, organism-based
Mus musculus [3] = assay: Hepatoprotective activity against ischemia-reperfusion injury mouse model assessed as reduction in ALT level in serum at 10 mg/kg, ip administered once daily for 3 days; format: functional, organism-based; settings: time 3.0 day
Mus musculus [4] = species on record: Mus musculus; assay: Hepatoprotective activity against ischemia-reperfusion injury mouse model assessed as reduction in translocation of HMGB1 from nucleus to cytoplasm by IHC staining based analysis; format: functional, organism-based
AML12 [5] = assay: Cytoprotective activity against CoCl2-induced mouse AML12 cells assessed as increased cell survival rate at 1.25 to 10 uM by CCK8 assay; format: functional, cell-based; settings: dose 1.25-10 µM
Mus musculus [6] = species on record: Mus musculus; assay: Hepatoprotective activity against ischemia-reperfusion injury mouse model assessed as reduction in liver ecchymosis by H and E staining based analysis; format: functional, organism-based
Mus musculus [7] = species on record: Mus musculus; assay: Hepatoprotective activity against ischemia-reperfusion injury mouse model assessed as reduction in necrocytosis by H and E staining based analysis; format: functional, organism-based
Mus musculus [8] = assay: Hepatoprotective activity against ischemia-reperfusion injury mouse model assessed as reduction in LDH level in serum at 10 mg/kg, ip administered once daily for 3 days; format: functional, organism-based; settings: time 3.0 day
Mus musculus [9] = assay: Hepatoprotective activity against ischemia-reperfusion injury mouse model assessed as reduction in AST level in serum at 10 mg/kg, ip administered once daily for 3 days; format: functional, organism-based; settings: time 3.0 day
Mus musculus [10] = species on record: Mus musculus; assay: Hepatoprotective activity against ischemia-reperfusion injury mouse model assessed as reduction in leukocyte infiltration by H and E staining based analysis; format: functional, organism-based
Mus musculus [11] = species on record: Mus musculus; assay: Hepatoprotective activity against ischemia-reperfusion injury mouse model assessed as reduction in MPO expression level by IHC staining based analysis; format: functional, organism-based
Mus musculus [12] = species on record: Mus musculus; assay: Hepatoprotective activity against ischemia-reperfusion injury mouse model assessed as reduction in cleaved caspase-3 by IHC staining based analysis; format: functional, organism-based
AML12 [13] = assay: Cytotoxicity against mouse AML12 cells assessed as reduction in cell survival rate at by CCK8 assay; format: toxicity, cell-based

CC1(C)C=Cc2c(ccc3c2N(O)C(=O)[C@@]32C[C@@]34NC(=O)[C@]5(CCCN5C3=O)C[C@H]4C2(C)C)O1
Activity (AML12 [1]): inactive

CC1(C)C=Cc2c(ccc3c2NC(=O)[C@@]32C[C@@]34NC(=O)[C@]5(CCCN5C3=O)C[C@H]4C2(C)C)O1
Activity (AML12 [1]): inactive

C=CC(C)(C)[C@@]1(C[C@@H]2NC(=O)[C@]3(OC)CCCN3C2=O)C(=O)Nc2c1ccc1c2C=CC(C)(C)O1
Activity (AML12 [1]): inactive

C=CC(C)(C)[C@]1(C[C@@H]2NC(=O)[C@]3(OC)CCCN3C2=O)C(=O)Nc2c1ccc1c2C=CC(C)(C)O1 [NOTOAMIDE Q]
Activity (AML12 [1]): Active
Activity (Mus musculus [2]): Active
Activity (Mus musculus [3]): Active
Activity (Mus musculus [4]): Active
Activity (AML12 [5]): Active
Activity (Mus musculus [6]): Active
Activity (Mus musculus [7]): Active
Activity (Mus musculus [8]): Active
Activity (Mus musculus [9]): Active
Activity (Mus musculus [10]): Active
Activity (Mus musculus [11]): Active
Activity (Mus musculus [12]): Active
Activity (AML12 [13]): Non-Toxic

C=CC(C)(C)C(=O)Nc1c(C(=O)C[C@@H]2NC(=O)[C@@H]3CCCN3C2=O)ccc(O)c1CC=C(C)C
Activity (AML12 [1]): inactive

C/C=C1\NC(=O)[C@H](Cc2c[nH]c3ccccc23)N(C)C1=O
Activity (AML12 [1]): inactive

C=CC(C)(C)[C@]1(C[C@@H]2NC(=O)[C@@H]3CCCN3C2=O)C(=O)Nc2c1ccc(O)c2CC=C(C)C
Activity (AML12 [1]): inactive
